From US10577322B2, “5-methoxytryptophan and its derivatives and uses thereof” (National Health Research Institutes, priority 2015, dated 2020)

How the values were obtained:
NF-κB p65 [1] = experiment: Phospho-p65 in peritoneal macrophage lysates (ELISA kit); format: cell-based, mouse; details: peritoneal macrophages, 5-MTP 50 μM
Method: (§1) Furthermore, after pretreating RAW264.7 cells with different concentrations of 5-MTP for 30 min, cells were stimulated with. LPS for 4 h. NF-κB p65, phospho-NF-κB p65 (p-p65) (Ser536) or β-actin was determined by immunoblotting with specific antibodies. Also, peritoneal macrophages were treated with LPS with or without 5-MTP (50 μM) for the indicated time. Phospho-p65 in the lysates was analyzed by an ELISA kit. The results are shown in FIG. 10D, in which the error bars denote mean ±SD (n=3). According to FIGS. 10C-10D, 5-MTP decreased LPS-induced phosphorylation of NF-κB p65 not only in RAW264.7 cells (FIG. 10C) but also in peritoneal macrophages (FIG. 10D).

ERK½ = experiment: LPS-induced ERK½ phosphorylation in RAW264.7 cells (immunoblot); format: cell-based, mouse; details: LPS 4 h
Method: (§2) Cellular protein were resolved by 5% to 20% SDS-PAGE and transferred to nitrocellulose membranes and blotted with specific antibodies as previously described (Lee, G. L., et al.).
(§3) After pretreating RAW264.7 cells with different concentrations of 5-MTP for 30 min, cells were stimulated with LPS for 4 h. Cell lysates were immunoblotted with antibodies for p38, phospho-p38 (p-p38), ERK½, phospho-ERK½ (p-ERK½) or β-actin. […] Activation of p38 MAPK in macrophages is required for TLR-induced NF-κB activation, which is one of the key factors affecting TLR-induced cytokine production. Thus, we evaluated the effect of 5-MTP on LPS-induced. NF-κB activation.

caspase-3 = experiment: Caspase-3 activity in splenocytes (fluorogenic substrate); format: in vivo, mice; details: 5-MTP 100 mg/kg, 16 h
Method: Caspase-3 activity was determined by the cleavage of the fluorometric substrate z-DEVD-AMC (Upstate Biotechnology) as previously described (Kuo, C. C., Liang, C. M., Lai, C. Y. & Liang, S. M. Involvement of heat shock protein(Hsp)90 beta but not Hsp90 alpha in antiapoptotic effect of CpG-B oligodeoxynucleotide. J Immunol 178, 6100-6108 (2007)).
In addition, caspase-3 activity in splenocytes of mice treated with saline, LPS or LPS plus 5-MTP (100 mg/kg) for 16 h was measured by fluorogenic substrate as described above. The results are shown in FIG. 9B, in which the error bare denotes mean±SD (n=6 mice/group).

p38 MAPK = experiment: LPS-induced p38 MAPK phosphorylation in RAW264.7 cells (immunoblot); format: cell-based, mouse; details: LPS 4 h
Method: as §2, §3

[2] = Spleen weight/body weight ratio in LPS-challenged mice; format: in vivo
Method: Furthermore, spleen weight/body weight (SW/BW) ratio was also assessed (n=6 mice/group).

BALF total cell number = experiment: Cell number in bronchoalveolar lavage fluid (trypan blue exclusion); format: in vivo, mice; details: 24 h after LPS
Method: Furthermore, bronchoalveolar lavage fluid (BALF) was isolated from mice treated with LPS with or without various concentrations of 5-MTP for 24 h. Cell number in BALF was determined by trypan blue exclusion assay.

NF-κB p65 [3] = experiment: Phospho-NF-κB p65 (Ser536) in RAW264.7 cells (immunoblot); format: cell-based, mouse; details: LPS 4 h
Method: as §1

COX-2 = COX-2 immunohistochemistry in lung tissues of LPS-treated mice; format: in vivo; details: LPS 60 mg/kg; 12 h, 16 h and 24 h
Method: Prior to immunohistochemical detection of COX-2, iNOS, Ly6g, or cleaved caspase-3 in lung sections, sections were deparaffinized with xylene, progressively rehydrated through graded alcohols. Antigen sites were retrieved by heating the sections on slides in pH 8 EDTA antigen. retrieval (Trilogy; Cell Marque Corporation) in electric pressure cooker for 15 min. […] All antibodies described hereafter were diluted in blocking buffer. Sections were incubated at room temperature for 2 h with primary antibody and then washed in PBST. The sections were incubated with primary antibody amplifier quanta (Thermo) for 10 minutes. After rinsing with PBST, the sections were incubated with HRP Polymer Quanto (Thermo) for 10 minutes and washed three times with PBST. COX-2, iNOS, Ly6g and cleaved caspase-3 were visualized by the addition of DAB Quanto Chromogen: Substrate for 3 minutes. Tissues were also counterstained with hematoxylin.
Moreover, paraffin-embedded sections were prepared from lungs of mice injected with 60 mg/kg LPS with or without saline or 5-MTP at 12 h, 16 h and 24 h. COX-2 and inducible nitric oxide synthase (iNOS) protein levels in lung tissues were determined by immunohistochemistry by staining with anti-COX-2 and anti-iNOS antibodies, respectively. The results are shown in FIGS. 6A-6B, in which scale bars represent 100 μm. […]

[4] = Serum 5-MTP level in mice after 5-MTP administration; format: in vivo; details: 5-MTP 23.4 mg/kg
Method: To ensure that 5-MTP administration increases serum 5-MTP, we analyzed 5-MTP level at 24 h and 72 h after 5-MTP infusion. Serum 5-MTP concentrations in mice treated with saline or LPS with or without 5-MTP (23.4 mg/kg) at 24 h and 72 h. The error bars denote mean±SD (n=3).

IL-6 promoter = experiment: IL-6 promoter-luciferase assay in RAW264.7 cells; format: cell-based, mouse; details: LPS 8 h
Method: RAW264.7 macrophages were cotransfected with COX-2 promoter-luciferase, IL-6 promoter-luciferase constructs as previously described (Lee, G. L., et al.) or p5xNF-κB-luciferase (Stratagene) and pcDNA3.1-β-galactosidase plasmids using FuGENE 6 (Roche). After overnight transfection, the cells were incubated with or without LPS in the presence or absence of 5-MTP for 8 h. After treatment, cells were lysed, and luciferase activity was measured using an assay kit (Promega). β-galactosidase activity was used to normalize the data.
Moreover, RAW264.7 cells and IL-6 promoter-luciferase plasmid transfected RAW264.7 cells were pretreated with different concentrations of 5-MTP for 30 min, followed by LPS stimulation for 8 h. IL-6 promoter activity was measured by luciferase assay. IL-6 level in culture supernatants was measured by ELISA.

Q: Which “LPS-induced phosphorylation of NF-κB p65” value (NF-κB p65 [1]) does the source give for `COc1ccc2[nH]cc(C[C@H](N)C(=O)O)c2c1` [5-MTP, 5-methoxytryptophan] here?
A: The value was “decreased”.

Q: And the “phosphorylation of ERK½” value (ERK½)?
A: The value was “but not that of ERK½”.

Q: What about the “LPS-induced caspase-3 cleavage in spleen cells” value (caspase-3) of the same compound?
A: Its value is “prevented”.

Q: What about the “phosphorylation of p38 MAPK” value (p38 MAPK) of the same compound?
A: The value was “dose-dependently blocked”.

Q: What about the “spleen weight/body weight (SW/BW) ratio, spleen edema” value [2] of the same compound?
A: The value was “ameliorated spleen edema in a dose-dependent manner”.

Q: And the “total cell number in BALF” value (BALF total cell number)?
A: Its value is “reduced by 5-MTP in a dose-dependent manner”.

Q: What about the “LPS-induced phosphorylation of NF-κB p65” value (NF-κB p65 [3]) of the same compound?
A: Its value is “decreased”.

Q: What about the “COX-2 expression in lung tissues” value (COX-2) of the same compound?
A: The value was “suppresses”.

Q: What about the “serum 5-MTP level at 24 h after administration” value [4] of the same compound?
A: Its value is “several-fold over the basal level”.

Q: What about the “serum 5-MTP level at 72 h” value [4] of the same compound?
A: The value was “returned to basal level”.

Q: What about the “LPS-induced IL-6 promoter activity” value (IL-6 promoter) of the same compound?
A: The value was “inhibited”.
